This is an account of results in ChEMBL document CHEMBL5252618, “Discovery and Biosynthesis of Imidazolium Antibiotics from the Probiotic Bacillus licheniformis” (J Nat Prod, 2023).

Several values for one entry are separate records, joined by “and”; a condition that tells them apart may be missing. Identical values can stand only once. Activity calls are given as the source filed them. The rule behind the calls is not given here. Where only a bound is given, the exact number is not on record here.

The test system of one data set is A549. Put plainly: Cytotoxicity against human A549 cells at 31.25 to 500 uM incubated for 24 hrs by CellTiter96 aqueous one solution based assay. The class given is functional, cell-based. Conditions: dose 31.25-500 µM.
Another data set deals with NIH3T3. Description: Cytotoxicity against mouse NIH3T3 cells at 31.25 to 500 uM incubated for 24 hrs by CellTiter96 aqueous one solution based assay. The class given is toxicity, cell-based. Conditions: nih3t3, 24 h, dose 31.25-500 µM.
For the next data set, the system named is HepG2. Put plainly: Cytotoxicity against human HepG2 cells at 31.25 to 500 uM incubated for 24 hrs by CellTiter96 aqueous one solution based assay. It is filed as functional, cell-based. Conditions: dose 31.25-500 µM.
The subject of the next data set is HCT-116. Put plainly: Cytotoxicity against human HCT-116 cells at 31.25 to 500 uM incubated for 24 hrs by CellTiter96 aqueous one solution based assay. The class given is functional, cell-based. Conditions: dose 31.25-500 µM.
In a further data set the test system is HT-1080. Description: Cytotoxicity against human HT-1080 cells at 31.25 to 500 uM incubated for 24 hrs by CellTiter96 aqueous one solution based assay. It is filed as functional, cell-based. Conditions: dose 31.25-500 µM.
Another data set concerns WI-38. Description: Cytotoxicity against human WI-38 cells at 31.25 to 500 uM incubated for 24 hrs by CellTiter96 aqueous one solution based assay. The class given is toxicity, cell-based. Conditions: wi-38, 24 h, dose 31.25-500 µM.
Data set [1] is described as follows: Cytotoxicity against human Chang liver cells at 31.25 to 500 uM incubated for 24 hrs by CellTiter96 aqueous one solution based assay. The class given is toxicity, cell-based. Conditions: dose 31.25-500 µM.
Data set [2] relates to Acinetobacter baumannii. Description: Antibacterial activity against Acinetobacter baumannii harboring LPS-deficient mutant lpxC assessed as bacterial growth inhibition incubated for overnight by visual analysis. It is filed as functional.
Data set [3] has as its system Brevibacterium epidermidis. Put plainly: Antibacterial activity against Brevibacterium epidermidis ATCC35514 assessed as bacterial growth inhibition incubated for overnight by visual analysis. It is filed as functional.
In data set [4] the test system is Acinetobacter baumannii. Put plainly: Antibacterial activity against Acinetobacter baumannii assessed as bacterial growth inhibition incubated for overnight by visual analysis. It is filed as functional.
The subject of data set [5] is Staphylococcus aureus. Put plainly: Antibacterial activity against methicillin-resistant Staphylococcus aureus USA300 assessed as bacterial growth inhibition incubated for overnight by visual analysis. It is filed as functional.
Data set [6] relates to Lacticaseibacillus paracasei. Put plainly: Antibacterial activity against Lacticaseibacillus paracasei subsp.paracasei ATCC25302 assessed as bacterial growth inhibition incubated for overnight by visual analysis. Conditions: subsp. paracasei ATCC 25302. It is filed as functional.
For data set [7], the system named is Escherichia coli. Description: Antibacterial activity against Escherichia coli MG1655 assessed as bacterial growth inhibition incubated for overnight by visual analysis. It is filed as functional.
The next data set deals with RAW264.7. Put plainly: Antiinflammatory activity in mouse RAW 264.7 cells assessed as inhibition of LPS-induced NO production at 10 uM pretreated for 1 hr followed by LPS stimulation and further incubated for 24 hrs by griess reagent based assay. It is filed as functional, cell-based. Conditions: time 25.0 hrs.
Data set [8] relates to Staphylococcus aureus. Description: Antibacterial activity against methicillin-resistant Staphylococcus aureus ATCC 33591 assessed as bacterial growth inhibition incubated for 18 hrs. The class given is functional.
Data set [9] deals with Escherichia coli. Description: Antibacterial activity against Escherichia coli ATCC 25922 assessed as bacterial growth inhibition incubated for 18 hrs. It is filed as functional.
The next data set relates to Bacillus subtilis. Description: Antibacterial activity against Bacillus subtilis NRS-231 assessed as bacterial growth inhibition incubated for 18 hrs. It is filed as functional.
The test system of data set [10] is Acinetobacter baumannii. Put plainly: Synergistic antibacterial activity against Acinetobacter baumannii assessed as potentiation of colistin-induced antibacterial effect by measuring […] in colistin MIC at 0.32 to 84 ug/ml incubated for 24 hrs by checker board assay relative to control. The class given is functional. Conditions: dose 0.32-84 µg/ml.

Data set [11] concerns Escherichia coli. Put plainly: Synergistic antibacterial activity against wild type Escherichia coli MG1655 assessed as potentiation of colistin-induced antibacterial effect by measuring colistin MIC at 0.32 to 84 ug/ml incubated for 24 hrs by checker board assay (reference value: 2.5 ug/ml). The class given is functional. Conditions: dose 0.32-84 µg/ml.
Data set [12] deals with Escherichia coli. Description: Synergistic antibacterial activity against wild type Escherichia coli MG1655 assessed as potentiation of colistin-induced antibacterial effect by measuring […] in colistin MIC at 0.32 to 84 ug/ml incubated for 24 hrs by checker board assay relative to control. Conditions: dose 0.32-84 µg/ml. It is filed as functional.
Data set [13] relates to Acinetobacter baumannii. Description: Synergistic antibacterial activity against Acinetobacter baumannii assessed as potentiation of colistin-induced antibacterial effect by measuring colistin MIC at 0.32 to 84 ug/ml incubated for 24 hrs by checker board assay (reference value: 0.2 ug/ml). It is filed as functional. Conditions: dose 0.32-84 µg/ml.

With `CC(=O)NCCc1ccccc1`, the result with A549, in the data set on HepG2, in the data set on HCT-116 and with HT-1080 was inactive. In addition, the Activity entry (in the data set on NIH3T3; in the data set on WI-38; in data set [1]) was “Non-Toxic” throughout.

With `Cc1c(C)[n+](CCc2c[nH]c3ccccc23)cn1CCc1c[nH]c2ccccc12`, the outcome in the data set with A549, in the data set with HepG2, in the data set on HCT-116 and in the data set on HT-1080 was inactive. Further, the MIC in the data set with Acinetobacter baumannii [2] was 38 µg/mL and 100 µM; in [3], over 100 µM; with Acinetobacter baumannii [4] it was over 100 µM; in the data set with Staphylococcus aureus [5], over 100 µM; in data set [6], 19 µg/mL and 50 µM; with Escherichia coli [7], over 100 µM. The Activity entry (in the data set on NIH3T3; with WI-38; in data set [1]) was “Non-Toxic” in each case.

In the case of `CCCc1c(C)[n+](CCc2c[nH]c3ccccc23)c(CCC)n1CCc1c[nH]c2ccccc12`, the result with A549, in the data set with HepG2, in the data set with HCT-116 and with HT-1080 was Active. Also, the MIC in the data set on Acinetobacter baumannii [2] was 11 µg/mL and 25 µM; in [3], 11 µg/mL and 25 µM; in the data set on Acinetobacter baumannii [4] it was over 100 µM; with Staphylococcus aureus [5], 11 µg/mL and 25 µM; in [6], 6 µg/mL and 12.5 µM; in the data set on Escherichia coli [7], over 100 µM. The Activity result (in the data set with NIH3T3; with WI-38; in data set [1]) was “Non-Toxic” throughout. The inhibition result in the data set with RAW264.7 is “Active”.

Take `Cc1c(C)[n+](CCc2c[nH]c3ccccc23)cn1CCc1ccccc1`: the result with A549, in the data set with HepG2, in the data set with HCT-116 and in the data set on HT-1080 was inactive. The Activity result (in the data set with NIH3T3; with WI-38; in data set [1]) was “Non-Toxic” in each case. Further, the MIC in data set [6] was > 34 µg/mL and > 100 µM.

With `Cc1c(C)[n+](CCc2c[nH]c3ccccc23)c(C)n1CCc1ccccc1`, the outcome with A549, in the data set with HepG2, in the data set with HCT-116 and with HT-1080 was inactive. In addition, the Activity result (in the data set with NIH3T3; with WI-38; in data set [1]) was “Non-Toxic” throughout. Further, the inhibition entry in the data set on RAW264.7 is “inactive”. For the same molecule, the MIC in data set [6] was > 36 µg/mL and > 100 µM.

With `Cc1c(C)[n+](CCc2c[nH]c3ccccc23)c(C)n1CCc1c[nH]c2ccccc12`, the outcome in the data set with A549, in the data set on HepG2, in the data set with HCT-116 and in the data set on HT-1080 was inactive. Moreover, the MIC with Staphylococcus aureus [8] is over 50 µM; in the data set on Acinetobacter baumannii [2] it was 40 µg/mL and 100 µM; in data set [3] it was over 100 µM; in the data set with Escherichia coli [9], over 50 µM; in the data set on Acinetobacter baumannii [4] it was over 100 µM; in the data set with Staphylococcus aureus [5], 20 µg/mL and 50 µM. For the same molecule, the MIC with Bacillus subtilis was over 50 µM; in data set [6], 20 µg/mL and 50 µM; in the data set with Escherichia coli [7], over 100 µM. For the same molecule, the Activity entry (in the data set on NIH3T3; with WI-38; in data set [1]) was “Non-Toxic” each time.

On to `O=c1[nH]cc(F)c(=O)[nH]1` [FLUOROURACIL], for which the Activity entry (in the data set with NIH3T3; in the data set on WI-38; in data set [1]) was “Toxic” in each case.

Take `NCCc1c[nH]c2ccccc12` [TRYPTAMINE]: the outcome with A549, with HepG2, with HCT-116 and in the data set with HT-1080 was inactive. Besides, the Activity result (with NIH3T3; with WI-38; in data set [1]) was “Non-Toxic” each time.

As to `CC(=O)c1cc(C)c(C)n1CCc1c[nH]c2ccccc12`, the outcome in the data set with A549, in the data set with HepG2, with HCT-116 and in the data set with HT-1080 was inactive. Also, the Activity entry (in the data set on NIH3T3; in the data set with WI-38; in [1]) was “Non-Toxic” throughout. In addition, the inhibition result in the data set on RAW264.7 is “Active”.

For `CCCC(=O)C(C)NCCc1c[nH]c2ccccc12` (stereo not drawn), the result in the data set with A549, in the data set with HepG2, with HCT-116 and in the data set on HT-1080 was inactive. Further, the Activity entry (in the data set on NIH3T3; with WI-38; in data set [1]) was “Non-Toxic” in each case.

As to `CCCc1n(CCc2c[nH]c3ccccc23)c(C)c(C)[n+]1CCc1c[nH]c2ccccc12`, the result in the data set with A549, with HepG2, with HCT-116 and in the data set with HT-1080 was inactive. The “fold change (FC)” value in the data set with Acinetobacter baumannii [10] is reported as 4; with Escherichia coli [12] it was 8. Also, the MIC in the data set on Acinetobacter baumannii [2] was 2.6 µg/mL and 6.25 µM; in [3], 1.3 µg/mL and 3.13 µM; in the data set on Escherichia coli [11], 0.313 µg/mL; with Acinetobacter baumannii [4] it was over 100 µM; with Staphylococcus aureus [5] it was 1.3 µg/mL and 3.13 µM; in data set [6], 0.7 µg/mL and 1.56 µM. For the same molecule, the MIC in the data set on Escherichia coli [7] was over 100 µM; with Acinetobacter baumannii [13], 0.05 µg/mL. The Activity entry (in the data set on NIH3T3; in the data set on WI-38; in [1]) was “Non-Toxic” in each case.

For `Cc1c(C)[n+](CCc2c[nH]c3ccccc23)c(CC(C)C)n1CCc1c[nH]c2ccccc12`, the result in the data set with A549, with HepG2, in the data set with HCT-116 and in the data set with HT-1080 was inactive. For the same molecule, the MIC in the data set with Acinetobacter baumannii [2] is 22 µg/mL and 50 µM; in data set [3], over 100 µM; with Acinetobacter baumannii [4], over 100 µM; in the data set with Staphylococcus aureus [5], over 100 µM; in data set [6], 22 µg/mL and 50 µM; in the data set on Escherichia coli [7] it was over 100 µM. Further, the Activity result (in the data set on NIH3T3; with WI-38; in data set [1]) was “Non-Toxic” throughout. For the same molecule, the inhibition result in the data set with RAW264.7 is “inactive”.

Turning to `CC(=O)C(C)NCCc1c[nH]c2ccccc12` (stereo not drawn), the result in the data set on A549, with HepG2, with HCT-116 and in the data set with HT-1080 was inactive. In addition, the MIC in data set [3] is 12 µg/mL and 50 µM; with Staphylococcus aureus [5], 12 µg/mL and 50 µM; in [6], 6 µg/mL and 25 µM; with Escherichia coli [7] it was over 100 µM. Besides, the Activity result (in the data set on NIH3T3; in the data set with WI-38; in data set [1]) was “Non-Toxic” throughout.

Turning to `CCCc1n(CCC(C)C)c(C)c(C)[n+]1CCc1c[nH]c2ccccc12`, the outcome in the data set with A549, in the data set on HepG2, in the data set with HCT-116 and in the data set on HT-1080 was inactive. For the same molecule, the MIC with Acinetobacter baumannii [2] was 9 µg/mL and 25 µM; in [3] it was over 100 µM; with Acinetobacter baumannii [4], over 100 µM; in the data set on Staphylococcus aureus [5], over 100 µM; in [6], 9 µg/mL and 25 µM; in the data set on Escherichia coli [7], over 100 µM. In addition, the Activity entry (in the data set on NIH3T3; with WI-38; in data set [1]) was “Non-Toxic” throughout. Besides, the inhibition result with RAW264.7 is “Active”.
